Test results reported in PMC11397024, “Strategic Fluorination to Achieve a Potent, Selective, Metabolically Stable, and Orally Bioavailable Inhibitor of CSNK2” (Molecules, 2024).
Like-named read-outs stand apart in the source and are kept apart here.

Key:
24 h PK study in mice = format: in vivo, CD-1 mice; conditions: for concentration at 24 h: mouse, CD-1 mice, below limit of quantification, read-out: plasma concentration at the 24 h time point
Protocol: In the 24 h PK study, male CD-1 mice (6–8 weeks old, 20–30 g) were dosed by intravenous (i.v.), oral (p.o.), or intraperitoneal (i.p.) administration of compound 2. For i.v. administration, a single dose of compound 2 (3 mg/kg) was administered as 5 mL/kg of a 0.6 mg/mL solution in DMSO/PEG-400/Water (v/v/v, 10:30:60) to six mice. For p.o. administration, a single dose of compound 2 (10 mg/kg) was administered as 10 mL/kg of a 1 mg/mL solution in DMSO/PEG-400/Water (v/v/v, 10:30:60) to six mice. For i.p. administration, a single dose of compound 2 (10 mg/kg) was administered as 10 mL/kg of a 1 mg/mL solution in DMSO/PEG-400/Water (v/v/v, 10:30:60) to six mice. The mice had free access to water and food. At 0.083, 0.25, 0.5, 1, 2, 4, 8, 12, and 24 h post dose administration, 0.03 mL of blood was collected from the dorsal metatarsal vein of three mice at each time point. Each blood sample was transferred into a plastic microcentrifuge tube containing EDTA-K2 anticoagulant and mixed well with the anticoagulant then placed on ice prior to centrifugation at 4000× g for 5 min at 4 °C to obtain plasma. The samples were stored in a freezer at −75 ± 15 °C prior to analysis. At 12 h post dose administration and 24 h post dose administration, three mice were anesthetized using increasing concentrations of CO2, and lung samples were collected. Lung samples were quickly frozen in an ice box and stored at −75 ± 15 °C. Prior to analysis, all lung samples were weighed and homogenized with phosphate-buffered saline (PBS) in a lung weight (g)/buffer volume (mL) ratio of 1:3. The final concentration of the compound was calculated by multiplying the detected concentration by a dilution factor of four.
(§1) Concentrations of the test compound in the plasma samples were determined using a Prominence LC-MS/MS system with a DGU-20A5R(C) degasser, LC-30AD pump, CBM-20A system controller, SIL-20AC HT autosampler; Rack changer II, HALO 90A ES-CN (2.7 μm, 2.1 × 50 mm) column, and AB Sciex Triple Quan 5500 LC/MS/MS instrument. The mobile phase was 5–95% MeCN in H2O, with 0.1% formic acid. The desired serial concentrations of working solutions were achieved by diluting the stock solution of the analyte with 50% acetonitrile in water. A series of 10 µL working solutions […] were added to 10 μL of blank plasma or lung homogenate to achieve calibration standards of 0.5, 1, 2, 5, 10, 50, 100, 500, 1000 ng/mL in a total volume of 20 μL. A total of 5 quality control samples at 1 ng/mL, 2 ng/mL, 5 ng/mL, 100 ng/mL, and 800 ng/mL were prepared independently of those used for the calibration curves in the same manner. A 20 μL standard, 20 μL QC sample, and 20 μL of an unknown sample (10 µL plasma or lung homogenate with 10 µL blank solution) were added to 200 μL of acetonitrile containing internal standard mixture for precipitating protein. Then, the samples were vortexed for 30 s. After centrifugation at 4 °C and 4000 rpm for 15 min, the supernatant was diluted with ultrapure water at a ratio of 1:2 (v/v, 1:2), then 20 µL of diluted supernatant was injected into the LC/MS/MS system for quantitative analysis. PK parameters were calculated from the mean plasma concentration versus time using a noncompartmental model in WinNonlin Phoenix version 8.3.

[1] = Snapshot (5 h) PK study with/without EA and 1-ABT; format: in vivo; conditions: male, CD-1, mouse, plasma, ip, 10 mg/kg, CD-1 mice, 10 mg/kg i.p.
Protocol: In the 5 h PK study investigating the effect of co-dosing EA and 1-ABT, two cohorts of male CD-1 mice (6–8 weeks old, 20–30 g) were dosed via intraperitoneal (i.p.) administration of compound 2 (10 mg/kg) as a 10 mL/kg volume of a 1.0 mg/mL solution in DMSO/PEG-400/saline (v/v/v, 10:30:60). EA (30 mg/kg) was administered i.p. as a 1.0 mL/kg volume of a 30 mg/mL solution in NMP/PEG-400/water (v/v/v, 10:60:30) as a 6 h pretreatment and again at the time of dosing with compound 2. 1-ABT (100 mg/kg) was administered p.o. as a 10 mL/kg volume of a 10 mg/mL solution in saline as a 2 h pretreatment. No co-treatment with EA or 1-ABT was applied to the first cohort. Co-treatment with EA (30 mg/kg) and 1-ABT (100 mg/kg) was applied in the second cohort. Two mice were dosed in each cohort. The mice had free access to water and food. Blood (0.03 mL) was collected from the dorsal metatarsal vein at 0.5, 1, 3, and 5 h time points. Each blood sample was transferred into a plastic microcentrifuge tube containing EDTA-K2 anticoagulant. Blood samples were centrifuged at 4000× g for 5 min at 4 °C to obtain plasma. The samples were stored in a freezer at −75 ± 15 °C prior to analysis. Plasma samples from the two mice from each cohort and each time point were pooled together for analysis. At 5 h post dose administration, the mice were anesthetized using increasing concentrations of CO2, and lung samples were collected. Lung samples were quickly frozen in an ice box and stored at −75 ± 15 °C. Prior to analysis, all lung samples were weighed and homogenized with phosphate-buffered saline (PBS) in a lung weight (g)/buffer volume (mL) ratio of 1:3. The final compound concentration was calculated by multiplying the detected concentration by a dilution factor of four.
as §1

[2] = male, ip, CD-1 mouse plasma, 10 mg/kg i.p.
[3] = male, iv, CD-1 mouse plasma, 3 mg/kg i.v.
[4] = male, po, CD-1 mouse plasma, 10 mg/kg p.o.
[5] = with both EA (30 mg/kg) and 1-ABT (100 mg/kg)

With CCC(=O)Nc1cc(Nc2cc(NC3CC3)n3ncc(C#N)c3n2)c(F)cc1N1CCC[C@H](NC)C1 [Compound 2, (S)-N-(5-((3-cyano-7-(cyclopropylamino)pyrazolo[1,5-a]pyrimidin-5-yl)amino)-4-fluoro-2-(3-(methylamino)piperidin-1-yl)phenyl)propionamide] the AUC(0-t) (24 h PK study in mice; [2]) was 10.1 µM·h, the Cmax (24 h PK study in mice; [2]) was 2650 nM and the Tmax (24 h PK study in mice; [2]) was 0.5 h. It also gave a half-life (24 h PK study in mice; [2]) of 2.5 h, an AUC(0-t) (24 h PK study in mice; [3]) of 1.87 µM·h and a half-life (24 h PK study in mice; [3]) of 1.9 h. It also gave a Vd (24 h PK study in mice; male, iv, CD-1 mouse plasma, 3 mg/kg i.v., read-out: Vdss) of 3.5 L/kg, a concentration at 24 h (24 h PK study in mice; male, plasma, iv, 3 mg/kg i.v.) of under 1.02 nM and a concentration at 24 h (24 h PK study in mice; male, plasma, po, 10 mg/kg p.o.) of under 1.02 nM. For the same compound, the bioavailability (24 h PK study in mice; male, plasma, po, CD-1 mouse, 10 mg/kg p.o.) was 52%, the AUC(0-t) (24 h PK study in mice; [4]) was 3.13 µM·h and the Cmax (24 h PK study in mice; [4]) was 563 nM. The Tmax (24 h PK study in mice; [4]) was 2.7 h, the half-life (24 h PK study in mice; [4]) was 2.1 h and the lung concentrations (24 h PK study in mice; mice, 12 and 24 h post dose administration) was “accumulated in the lungs”. The AUC(0-t) ([1]; no co-treatment) was 7.77 µM·h, the Cmax ([1]; no co-treatment) was 3190 nM and the half-life ([1]; no co-treatment) was 2.5 h. It also gave an AUC(0-t) [1, 5] of 10.1 µM·h, a Cmax [1, 5] of 3150 nM and a half-life [1, 5] of 3.7 h.
